Data reported in patent publication US20220348590A1, “CYCLOOXYGENASE-2 INHIBITORS AND USES THEREOF” (The Board Institute, Inc., priority 2019, published 2022).
≈ marks a conversion by molar mass, not a printed value. Like-named read-outs stand apart in the source and are kept apart here.

Legend:
ovine COX-1 (oCOX-1) = target: T1, ovine COX-1 (oCOX-1) (Ovis aries, UniProt P05979); assay: LCMS-based COX-1 enzymatic inhibition assay (PGE2 quantification); assay type: biochemical; conditions: for COX1 10 minutes pge2/pge2d4 area ratio Avg. LLE / COX1 10 minutes pge2 area (counts) Avg. LLE: average LLE
T1 construct: purchased Cayman Chemicals (Ann Arbor, Mich.)
T1 sequence (P05979 25-600): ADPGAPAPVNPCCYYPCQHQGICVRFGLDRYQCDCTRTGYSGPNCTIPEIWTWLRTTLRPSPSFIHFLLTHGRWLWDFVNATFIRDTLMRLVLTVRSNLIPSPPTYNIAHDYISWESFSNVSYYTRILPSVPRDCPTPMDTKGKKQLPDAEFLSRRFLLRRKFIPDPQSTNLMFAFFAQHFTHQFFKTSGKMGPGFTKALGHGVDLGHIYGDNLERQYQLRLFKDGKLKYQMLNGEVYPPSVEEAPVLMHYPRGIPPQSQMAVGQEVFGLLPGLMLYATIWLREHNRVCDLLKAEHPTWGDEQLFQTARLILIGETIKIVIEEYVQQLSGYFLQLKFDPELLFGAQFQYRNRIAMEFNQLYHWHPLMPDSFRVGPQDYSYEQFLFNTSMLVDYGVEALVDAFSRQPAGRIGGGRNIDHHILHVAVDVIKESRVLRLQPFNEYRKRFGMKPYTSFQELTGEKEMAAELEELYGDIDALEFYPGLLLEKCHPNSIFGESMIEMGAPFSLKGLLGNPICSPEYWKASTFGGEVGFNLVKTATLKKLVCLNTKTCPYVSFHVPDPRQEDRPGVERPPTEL
How it was run: (§1)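 PGE2 formed from arachidonic acid (final 5 μM, 2 min) was measured by LC-MS-MS against DMSO controls. Enzyme (oCOX-1 0.1 μg or hCOX2 0.2 μg) with hematin/epinephrine cofactors at pH 8.0 was given 10 min at 37 °C with compound first. Twelve-point curves run three times gave IC50.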

[1] = target: T2, human recombinant COX2 (hCOX2) (UniProt P35354); assay: LCMS-based COX2 enzymatic inhibition assay (PGE2 quantification); assay type: biochemical; set-up: COX2 2 minutes pge2/pge2d4 area ratio Avg; other: 2 minutes; readout pge2/pge2d4 area ratio; average; COX2 2 minutes pge2/pge2d4 area ratio Avg; LLE; average LLE; COX2 2 minutes pge2 area (counts) Avg; readout pge2 area (counts); other: 2 min; "ovine COX2 (oCOX2), human recombinant COX2 (hCOX2)"; conditions: for IC50: average
T2 sequence (P35354 1-604): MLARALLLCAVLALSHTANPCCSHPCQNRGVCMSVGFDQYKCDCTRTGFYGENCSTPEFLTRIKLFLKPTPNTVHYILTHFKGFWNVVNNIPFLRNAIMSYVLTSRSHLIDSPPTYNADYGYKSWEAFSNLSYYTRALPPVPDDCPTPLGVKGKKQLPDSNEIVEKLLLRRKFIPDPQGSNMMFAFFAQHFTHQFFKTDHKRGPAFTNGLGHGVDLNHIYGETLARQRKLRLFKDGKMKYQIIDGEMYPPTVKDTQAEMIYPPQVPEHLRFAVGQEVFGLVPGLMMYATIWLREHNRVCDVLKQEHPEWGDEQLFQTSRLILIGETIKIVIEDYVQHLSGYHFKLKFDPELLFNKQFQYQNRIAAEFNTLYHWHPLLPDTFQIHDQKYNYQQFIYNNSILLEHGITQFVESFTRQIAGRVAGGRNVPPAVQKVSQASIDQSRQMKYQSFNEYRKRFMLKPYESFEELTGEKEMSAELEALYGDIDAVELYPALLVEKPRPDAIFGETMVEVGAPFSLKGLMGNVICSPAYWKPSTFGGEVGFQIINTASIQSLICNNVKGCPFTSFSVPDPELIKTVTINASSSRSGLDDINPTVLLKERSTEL
How it was run: as §1

[2] = Mouse Plasma Protein Stability (% Remaining); assay type: in vitro ADME; conditions: average
[3] = mouse plasma protein binding (PPB) assay; assay type: in vitro ADME; conditions: average, read-out: Mouse Plasma Protein Binding % Bound Avg (converted)
Method: (§2) We have adapted a previously reported cyclooxygenase enzymatic assay utilizing LCMS quantification of PGE2 as the product of COX-1 and COX2 catalyzed conversion of arachidonic acid to evaluate the binding properties of newly synthesized ligands [Cao, 2011]. These optimized and miniaturized (384-well plates) LCMS-based COX-1 and COX2 enzymatic assays enabled us to quickly evaluate newly synthesized ligands for COX2 binding affinity and selectivity vs COX-1. Using a shorter ligand-enzyme incubation time in the LCMS assay (2 minutes vs 10 minutes) also permitted us to prioritize ligands with faster binding kinetics. Considering the relatively slow on-rate kinetics of known coxibs, due to their 3-step binding mechanism [Marnett, 2009], we believe that optimizing this critical parameter will be key to the successful development of a COX2 PET tracer. Using these enzymatic assays, we have evaluated>200 newly synthesized ligands against COX2 and >20 ligands against COX-1. Another critical property necessary for a good PET radiotracer is to have low non-specific binding (NSB) to increase the free fraction and maximize the signal to noise ratio. This property can be evaluated using in-vitro protein binding assays, and we have now evaluated>50 newly synthesized ligands in mouse, rat and human plasma protein binding (PPB) assays as well as >15 ligands in a mouse brain protein binding (BPB) assay.

[4] = Human Microsome Stability; assay type: in vitro ADME; conditions: human microsomes
[5] = rat plasma protein binding (PPB) assay; assay type: in vitro ADME; conditions: average, read-out: Rat Plasma Protein Binding % Bound Avg (converted)
Method: as §2

PBS Solubility (no DMSO) = assay type: physicochemical; conditions: aqueous buffer, thermodynamic from solid, average
[6] = Rat Plasma Protein Stability (% Remaining); assay type: in vitro ADME; conditions: average
[7] = human plasma protein binding (PPB) assay; assay type: in vitro ADME; conditions: average, read-out: Human Plasma Protein Binding % Bound Avg (converted)
Method: as §2

[8] = Human Plasma Protein Stability (% Remaining); assay type: in vitro ADME; conditions: average
[9] = 10 minutes, readout pge2/pge2d4 area ratio
[10] = 10 minutes, readout pge2/pge2d4 area ratio, average, read-out: COX1 10 minutes pge2/pge2d4 area ratio Avg. IC50
[11] = 10 minutes, readout pge2 area (counts)
[12] = 10 minutes, readout pge2 area (counts), average, read-out: COX1 10 minutes pge2 area (counts) Avg. IC50
[13] = 2 minutes, readout pge2/pge2d4 area ratio, average LLE
[14] = 2 minutes, readout pge2/pge2d4 area ratio, read-out: COX2 2 minutes pge2/pge2d4 area ratio Avg. IC50
[15] = 2 minutes, readout pge2 area (counts), average LLE
[16] = 2 minutes, readout pge2 area (counts), read-out: COX2 2 minutes pge2 area (counts) Avg. IC50

SMILES	COX1 10 minutes pge2/pge2d4 area ratio Avg. LLE (ovine COX-1 (oCOX-1); [9])	IC50 (ovine COX-1 (oCOX-1); [10]) [nM]	COX1 10 minutes pge2 area (counts) Avg. LLE (ovine COX-1 (oCOX-1); [11])	IC50 (ovine COX-1 (oCOX-1); [12]) [nM]	COX2 2 minutes pge2/pge2d4 area ratio Avg. LLE [1, 13]	IC50 [1, 14] [nM]	COX2 2 minutes pge2 area (counts) Avg. LLE [1, 15]	IC50 [1, 16] [nM]	COX2 10 minutes pge2 area (counts) Avg. LLE ([1]; 10 minutes, readout pge2 area (counts), average LLE)	IC50 ([1]; 10 minutes, readout pge2 area (counts), read-out: COX2 10 minutes pge2 area (counts) Avg. IC50) [nM]	Mouse Plasma Protein Stability % Remaining Avg [2] [%]	fraction unbound [3]	Human Microsome Stability % Remaining Avg [4] [%]	IC50 (ovine COX-1 (oCOX-1)) [nM]	fraction unbound [5]	solubility (PBS Solubility (no DMSO)) [µM]	Rat Plasma Protein Stability % Remaining Avg [6] [%]	fraction unbound [7]	Human Plasma Protein Stability % Remaining Avg [8] [%]
CN(Cc1cccs1)c1cncc(-c2ccc(S(C)(=O)=O)cc2)n1 [Compound 51]	3.094	2930	3.234	2230	5.185	23.9	5.211	23.2	6.088	3.57	109.5	0.015							
CS(=O)(=O)c1ccc(-c2ccc3ccn(Cc4ccoc4)c3n2)cc1 [Compound 26]	0.9493	11400	0.6431	16700	3.778	12	3.652	16.6			97.5	0.018	43						
CCOc1ncc(NCc2cccs2)nc1-c1ccc(S(C)(=O)=O)cc1 [Compound 25]	1.374		1.374		5.041	11.8	4.857	19.6			93.1	0.015		52000					
CS(=O)(=O)c1ccc(-c2cccc(OCc3ccsc3)n2)cc1 [Compound 9]	0.4674	48900			4.3	8.03	4.276	8.91					35		0.003	3.7 (≈ 1.28 µg/mL)	121	0.003	114
C[C@H](Oc1cncc(-c2ccc(S(C)(=O)=O)cc2)n1)c1cccs1 (single isomer, unassigned) [Compound 53]	2.125	8610	2.0112	11700	4.852	25	4.799	27.6			36.7	0.001							
Cc1ccsc1CNc1cccc(-c2ccc(S(C)(=O)=O)cc2)n1 [Compound 7]	0.564		0.564		4.522	6.36	4.509	7.11			97.8	0.015		52000					
